Where a name gives a salt, the structure may show the parent alone.
Test system: hypoxic mice
Experiment: Survival time of mice under normal pressure in hypoxic condition (sealed wide mouth bottle with soda lime)
Type: in vivo
Details: intragastric; for Extended Survival Time: 7 days, vs control group; for Survival Time: once a day for 7 days, n = 10, x ± S
Experimental: Observation of influence of oral administration of different dosage combination of L-carnitine+trimetazidine to hypoxic mice in normal pressure trimetazidine hydrochloride: 0.15, 0.75, 1.5, 3, 6 and 9 mg/kg, equivalent to human daily dosage of 1, 5, 10, 20, 40 and 60 mg;
L-carnitine: 600 mg/kg, equivalent to human daily dosage of 4 g; 70 male mice are selected, each of a weight of 20±2 g. The mice are divided into […] randomly based on weight, 10 for each group, and are given oral administration at a dosage of 20 ml/kg, while the control group is given isovolumetric normal saline, both once a day for consecutive 7 days. In one hour after the final administration, each group of mice are placed in wide mouth bottles of a volume of 160 ml, into which 5 g of soda lime has been pre-added. One bottle contains one mouse and its cap is sealed with Vaseline. Taking death of mice as index, putting down the survival time of mice and taking a 20% or more extension of survival time as significant effect. Please refer to table 1 for the results.
Comparison of L-carnitine 600 mg/kg+trimetazidine hydrochloride 6 mg/kg and separate intragastric administration on mice in hypoxia under atmospheric pressure 40 male mice are selected, each of a weight of 20±2 g. The mice are divided into 4 groups randomly based on weight, 10 for each group, and are given intragastric administration at a dosage of 20 ml/kg, while the control group is given isovolumetric normal saline, both once a day for consecutive 7 days. In one hour after the final administration, each group of mice are placed in wide mouth bottles of a volume of 160 ml, into which 5 g of soda lime has been pre-added. One bottle contains one mouse and its cap is sealed with Vaseline. Taking death of mice as index and putting down the survival time of mice. Please refer to table 2 for the results.

[1] = trimetazidine hydrochloride 6 mg/kg alone

COc1ccc(CN2CCNCC2)c(OC)c1OC [trimetazidine hydrochloride]
Extended Survival Time [1]: 20.9%
Survival Time [1]: 26.0 ± 5.2 min

C[N+](C)(C)C[C@H](O)CC(=O)[O-] [L-carnitine]
Extended Survival Time (L-carnitine 600 mg/kg alone): 33.0%
Survival Time (L-carnitine 600 mg/kg alone): 28.6 ± 4.8 min
